Results from PubChem BioAssay AID1963872 (Molecular Pharmacology Branch, DTP, NCI, 2024).

System: KRAS patient-derived spheroids with HUVEC/MSC, viability
Assay: Anticancer human tumor 519858-162-T-J1-PDC patient-derived colon adenocarcinoma cell line growth inhibition [KRAS2]
Details: for IC50: curve of first compound; for viability, T/C: stronger effect = lower value
In short: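 Combination screen of spheroid viability in tumor-cell co-cultures with endothelial (HUVEC) and mesenchymal stem cell stroma. Each agent was tested in half-log dilutions, topping at clinical Cmax or at 10 microM without a known Cmax.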

[1] = second compound 0.1 µM, first compound 0.0316 µM
[2] = second compound 0.1 µM, first compound 0.1 µM
[3] = second compound 0.1 µM, first compound 0.316 µM
[4] = second compound 0.1 µM, first compound 1 µM
[5] = second compound 0.1 µM, first compound 3.16 µM
[6] = second compound 0.1 µM, first compound 10 µM
[7] = second compound 0.316 µM, first compound 0.0316 µM
[8] = second compound 0.316 µM, first compound 0.1 µM
[9] = second compound 0.316 µM, first compound 0.316 µM
[10] = second compound 0.316 µM, first compound 1 µM
[11] = second compound 0.316 µM, first compound 3.16 µM
[12] = second compound 0.316 µM, first compound 10 µM
[13] = second compound 1 µM, first compound 0.0316 µM
[14] = second compound 1 µM, first compound 0.1 µM
[15] = second compound 1 µM, first compound 0.316 µM
[16] = second compound 1 µM, first compound 1 µM
[17] = second compound 1 µM, first compound 3.16 µM
[18] = second compound 1 µM, first compound 10 µM
[19] = second compound 3.16 µM, first compound 0.0316 µM
[20] = second compound 3.16 µM, first compound 0.1 µM
[21] = second compound 3.16 µM, first compound 0.316 µM
[22] = second compound 3.16 µM, first compound 1 µM
[23] = second compound 3.16 µM, first compound 3.16 µM
[24] = second compound 3.16 µM, first compound 10 µM
[25] = second compound 10 µM, first compound 0.0316 µM
[26] = second compound 10 µM, first compound 0.1 µM
[27] = second compound 10 µM, first compound 0.316 µM
[28] = second compound 10 µM, first compound 1 µM
[29] = second compound 10 µM, first compound 3.16 µM
[30] = second compound 10 µM, first compound 10 µM
[31] = second compound 0.1 µM, first compound 0.000316 µM
[32] = second compound 0.1 µM, first compound 0.001 µM
[33] = second compound 0.1 µM, first compound 0.00316 µM
[34] = second compound 0.1 µM, first compound 0.01 µM
[35] = second compound 0.316 µM, first compound 0.000316 µM
[36] = second compound 0.316 µM, first compound 0.001 µM
[37] = second compound 0.316 µM, first compound 0.00316 µM
[38] = second compound 0.316 µM, first compound 0.01 µM
[39] = second compound 1 µM, first compound 0.000316 µM
[40] = second compound 1 µM, first compound 0.001 µM
[41] = second compound 1 µM, first compound 0.00316 µM
[42] = second compound 1 µM, first compound 0.01 µM
[43] = second compound 3.16 µM, first compound 0.000316 µM
[44] = second compound 3.16 µM, first compound 0.001 µM
[45] = second compound 3.16 µM, first compound 0.00316 µM
[46] = second compound 3.16 µM, first compound 0.01 µM
[47] = second compound 10 µM, first compound 0.000316 µM
[48] = second compound 10 µM, first compound 0.001 µM
[49] = second compound 10 µM, first compound 0.00316 µM
[50] = second compound 10 µM, first compound 0.01 µM
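Further: compound exposure lasted seven days before readout.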
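Wherever viability, T/C is given: 100% = DMSO vehicle control viability.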

Row | SMILES | IC50 (second compound 0.1 µM) [nM] | IC50 (second compound 0.316 µM) [nM] | IC50 (second compound 1 µM) [nM] | IC50 (second compound 3.16 µM) [nM] | IC50 (second compound 10 µM) [nM] | viability, T/C [1] [%] | viability, T/C [2] [%] | viability, T/C [3] [%] | viability, T/C [4] [%] | viability, T/C [5] [%] | viability, T/C [6] [%] | viability, T/C [7] [%] | viability, T/C [8] [%] | viability, T/C [9] [%] | viability, T/C [13] [%] | viability, T/C [14] [%] | viability, T/C [19] [%] | viability, T/C [20] [%] | viability, T/C [25] [%] | viability, T/C [26] [%] | also measured
1 | COc1cc(Nc2ncc3c(n2)-c2ccc(Cl)cc2C(c2c(F)cccc2OC)=NC3)ccc1C(=O)O + CC1OCC2(CCN(c3cnc(Sc4ccnc(N)c4Cl)c(N)n3)CC2)C1N | > 10000 | > 10000 | > 10000 | 31.6 | > 10000 | 84.6 | 67.9 | 77.1 | 63.4 | 62 | 73.3 | 69.3 | 62.8 | 88.1 | 60.4 | 58.7 | 55.4 | 58 | 73 | 48.9 | viability, T/C [10]: 75.7%; viability, T/C [11]: 63%; viability, T/C [12]: 89%; viability, T/C [15]: 57.9%; viability, T/C [16]: 49.7%; viability, T/C [17]: 66.5%; viability, T/C [18]: 111%; viability, T/C [21]: 45.7%; viability, T/C [22]: 42.9%; viability, T/C [23]: 71.2%; viability, T/C [24]: 71.1%; viability, T/C [27]: 49.5%; viability, T/C [28]: 53.4%; viability, T/C [29]: 74.9%; viability, T/C [30]: 78%
2 | Cn1ncnc1[C@H]1c2n[nH]c(=O)c3cc(F)cc(c23)N[C@@H]1c1ccc(F)cc1 + C=CC(=O)N1CCN(c2nc(=O)n(-c3c(C)ccnc3C(C)C)c3nc(-c4c(O)cccc4F)c(F)cc23)C(C)C1 | > 100 | > 100 | > 100 | > 100 | > 100 | 75.1 | 76.8 |  |  |  |  | 93 | 96.2 |  | 102 | 89.9 | 76.8 | 99.2 | 84.9 | 93.6 | viability, T/C [31]: 105%; viability, T/C [32]: 89.7%; viability, T/C [33]: 106%; viability, T/C [34]: 94.3%; viability, T/C [35]: 95.2%; viability, T/C [36]: 83.4%; viability, T/C [37]: 94.8%; viability, T/C [38]: 76%; viability, T/C [39]: 79.9%; viability, T/C [40]: 71.8%; viability, T/C [41]: 94.1%; viability, T/C [42]: 67.6%; viability, T/C [43]: 82%; viability, T/C [44]: 85.1%; viability, T/C [45]: 88.3%; viability, T/C [46]: 120%; viability, T/C [47]: 102%; viability, T/C [48]: 75.4%; viability, T/C [49]: 80.5%; viability, T/C [50]: 86.9%
3 | Cn1ncnc1[C@H]1c2n[nH]c(=O)c3cc(F)cc(c23)N[C@@H]1c1ccc(F)cc1 + COc1cc2nc(C)nc(NC(C)c3cc(N)cc(C(F)(F)F)c3)c2cc1OC1CCOC1 | > 100 | > 100 | > 100 | > 100 | > 100 | 76.9 | 80.1 |  |  |  |  | 77 | 74.5 |  | 68 | 58 | 47.8 | 70.6 | 57.8 | 48.4 | viability, T/C [31]: 71.8%; viability, T/C [32]: 95.3%; viability, T/C [33]: 73.5%; viability, T/C [34]: 71.8%; viability, T/C [35]: 68.2%; viability, T/C [36]: 68.7%; viability, T/C [37]: 59.2%; viability, T/C [38]: 74.9%; viability, T/C [39]: 74.7%; viability, T/C [40]: 67.3%; viability, T/C [41]: 70.9%; viability, T/C [42]: 97.4%; viability, T/C [43]: 45.8%; viability, T/C [44]: 60.3%; viability, T/C [45]: 45.7%; viability, T/C [46]: 69.8%; viability, T/C [47]: 49.7%; viability, T/C [48]: 55.6%; viability, T/C [49]: 57.8%; viability, T/C [50]: 50.7%
4 | CC1OCC2(CCN(c3cnc(Sc4ccnc(N)c4Cl)c(N)n3)CC2)C1N (stereo not given) + C=CC(=O)N1CCN(c2nc(=O)n(-c3c(C)ccnc3C(C)C)c3nc(-c4c(O)cccc4F)c(F)cc23)C(C)C1 | 7230 | > 10000 | 3160 | > 10000 | 3920 | 94.2 | 77.3 | 68.5 | 80.4 | 63.1 | 43.7 | 90.6 | 76 | 73.1 | 81.6 | 68.6 | 67.2 | 101 | 56 | 73 | viability, T/C [10]: 59.9%; viability, T/C [11]: 79.6%; viability, T/C [12]: 63.3%; viability, T/C [15]: 84.3%; viability, T/C [16]: 50.3%; viability, T/C [17]: 54%; viability, T/C [18]: 49.2%; viability, T/C [21]: 75.7%; viability, T/C [22]: 62.5%; viability, T/C [23]: 53.3%; viability, T/C [24]: 65.4%; viability, T/C [27]: 72.3%; viability, T/C [28]: 55.6%; viability, T/C [29]: 56%; viability, T/C [30]: 31.2%
